Measurements published in US11447505B1, “Pyrrolo[2,3-b]pyridine compounds and their use in the treatment of cancer” (priority 2017, dated 2022).
Read-outs that look alike come from different tables or passages of the source.

Columns and labels:
ROCK1 [1] = biological target: T1, ROCK1 (Homo sapiens (Human), UniProt Q13464); assay: biochemical
ROCK2 = ROCK2 (Homo sapiens (Human), UniProt O75116); assay: ROCK2 kinase assay (IMAP fluorescence polarization); assay type: biochemical
Procedure: MRCKα, MRCKβ, ROCK1 and ROCK2 assays were performed using an IMAP fluorescence polarization assay format (Molecular Devices Inc.). 8-12 nM of each kinase (Life Technologies) was incubated for 60 min at room temperature with 100 nM FAM-S6-ribosomal protein derived peptide (synthesized by Alta Biosciences, University of Birmingham UK) in the presence of 1 μM ATP and 0.5 mM MgCl2 in 20 mM Tris buffer (pH 7.4) containing 0.01% Tween-20 and 1 mM DTT (MRCKα and β); or 1 μM ATP, 10 mM MgCl2 in 20 mM Tris buffer (pH 7.5) containing 0.25 mM EGTA 0.01% Triton X-100 and 1 mM DTT (ROCK1 and ROCK2). Typically, dose response analyses were performed over concentration ranges from 0.005-100 μM. Reactions were stopped by adding 2 assay volumes of 0.25% (v/v) IMAP binding reagent in 1×IMAP binding buffer A (Molecular Devices). After 30 min incubation to allow binding reagent to bind phosphorylated peptide, fluorescence polarization was measured on a Tecan Saphire^2 plate reader at excitation (470 nm) and emission (530 nm) wavelengths.

MRCKα = MRCKα (Homo sapiens (Human), UniProt Q5VT25); assay: MRCKα kinase assay (IMAP fluorescence polarization); assay type: biochemical
MRCKα, sequence (Q5VT25 whole entry): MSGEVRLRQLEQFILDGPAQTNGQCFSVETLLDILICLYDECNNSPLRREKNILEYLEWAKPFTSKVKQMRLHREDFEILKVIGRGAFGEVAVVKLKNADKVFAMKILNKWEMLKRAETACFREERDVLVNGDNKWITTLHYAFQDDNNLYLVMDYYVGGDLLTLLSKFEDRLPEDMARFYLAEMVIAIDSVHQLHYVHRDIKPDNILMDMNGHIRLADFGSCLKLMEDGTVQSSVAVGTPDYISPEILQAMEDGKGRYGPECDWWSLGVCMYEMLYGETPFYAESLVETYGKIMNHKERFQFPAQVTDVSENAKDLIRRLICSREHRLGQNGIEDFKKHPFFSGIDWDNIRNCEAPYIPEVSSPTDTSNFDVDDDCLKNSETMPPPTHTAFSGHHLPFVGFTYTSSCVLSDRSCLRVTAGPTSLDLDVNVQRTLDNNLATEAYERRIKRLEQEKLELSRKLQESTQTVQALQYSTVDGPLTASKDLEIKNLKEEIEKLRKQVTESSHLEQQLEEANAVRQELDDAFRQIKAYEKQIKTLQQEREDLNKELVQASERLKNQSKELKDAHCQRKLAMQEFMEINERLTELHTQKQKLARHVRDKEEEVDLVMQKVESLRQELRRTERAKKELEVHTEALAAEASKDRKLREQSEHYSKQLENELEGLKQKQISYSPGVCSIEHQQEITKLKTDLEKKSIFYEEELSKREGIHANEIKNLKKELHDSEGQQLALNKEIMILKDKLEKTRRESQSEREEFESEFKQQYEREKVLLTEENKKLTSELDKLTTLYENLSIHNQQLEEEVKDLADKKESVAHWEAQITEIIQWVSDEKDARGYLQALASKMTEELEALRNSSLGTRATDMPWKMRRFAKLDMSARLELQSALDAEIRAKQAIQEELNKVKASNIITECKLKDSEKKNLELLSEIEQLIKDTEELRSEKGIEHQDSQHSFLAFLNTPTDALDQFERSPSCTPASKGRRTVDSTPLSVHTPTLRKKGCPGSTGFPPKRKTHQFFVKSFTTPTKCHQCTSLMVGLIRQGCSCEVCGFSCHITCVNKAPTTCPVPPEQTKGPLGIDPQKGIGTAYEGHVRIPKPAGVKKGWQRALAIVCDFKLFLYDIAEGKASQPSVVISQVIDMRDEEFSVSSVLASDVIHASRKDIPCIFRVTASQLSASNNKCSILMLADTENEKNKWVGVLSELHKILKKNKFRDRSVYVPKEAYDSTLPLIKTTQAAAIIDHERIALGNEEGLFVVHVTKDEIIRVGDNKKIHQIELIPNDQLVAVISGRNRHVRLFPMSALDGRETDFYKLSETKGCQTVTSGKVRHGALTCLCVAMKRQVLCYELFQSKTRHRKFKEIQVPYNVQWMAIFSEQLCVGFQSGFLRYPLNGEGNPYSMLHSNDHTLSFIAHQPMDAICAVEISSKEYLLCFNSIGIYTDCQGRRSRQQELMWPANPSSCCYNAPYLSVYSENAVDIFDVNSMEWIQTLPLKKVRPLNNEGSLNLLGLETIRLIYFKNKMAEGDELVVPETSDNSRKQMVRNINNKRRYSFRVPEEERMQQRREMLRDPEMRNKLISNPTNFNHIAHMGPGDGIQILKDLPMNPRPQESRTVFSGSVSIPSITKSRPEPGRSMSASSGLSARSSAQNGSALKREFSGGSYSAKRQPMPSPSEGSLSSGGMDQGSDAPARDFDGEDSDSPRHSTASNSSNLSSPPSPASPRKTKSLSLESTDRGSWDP
From the text: (§1) MRCKα, MRCKβ, ROCK1 and ROCK2 Kinase Assays

MRCKβ [2] = biological target: T2, MRCKβ (Homo sapiens (Human), UniProt Q9Y5S2); assay: MRCKβ cellular assay (pMLC T18/S19 immunoblot, MDA-MB-231 cells with doxycycline inducible kinase domain); assay type: cell-based
Procedure: (§2) MRCKβ, ROCK1 and ROCK2 Cellular Assays
(§3) MDA-MB-231 cells expressing doxycycline inducible ROCK1, ROCK2 or MRCKβ kinase domains were plated at 1.1×10^5 cells per well of a 12 well plate. After 24 hours, cells were treated with 1 μg/ml doxycycline for 18 hours to induce kinase domain expression and then tested over a suitable concentration range with compounds of the invention for 60 minutes. Cells were then washed with PBS and lysed with Tris-SDS lysis Buffer (50 mM Tris-HCl pH7.4, 0.5% (v/v) SDS, 1×PhosStop Inhibitors (04 906 837 001; Roche) and 1×Complete Protease Inhibitors (04 693 124 001; Roche)). Whole cell lysates were clarified by passing through QIAshredder spin columns, separated by SDS-PAGE, and quantitative immunoblotting performed using a LI-COR Odyssey IR scanner to determine pMLC (T18/S19) and α-Tubulin levels.

MRCKβ [3] = biological target: T2, MRCKβ; assay: MRCKβ kinase assay (IMAP fluorescence polarization); assay type: biochemical
From the text: as §1

ROCK1 [4] = biological target: T1, ROCK1; assay: ROCK1 cellular assay (pMLC T18/S19 immunoblot, MDA-MB-231 cells with doxycycline inducible kinase domain); assay type: cell-based
Procedure: as §2, §3

ROCK1 [5] = biological target: T1, ROCK1; settings: read-out: ROCK1 Average Ki; 1 μM ATP
[6] = biological target: kinase targets listed in tables 3 and 4 (Homo sapiens, UniProt Q9Y5S2); assay: biochemical
[7] = biological target: kinase targets listed in tables 3 and 4 (Homo sapiens, UniProt Q9BXA7); assay: biochemical
kinase targets listed in tables 3 and 4 (Homo sapiens, UniProt Q9BXA7), sequence (Q9BXA7 whole entry, looked up): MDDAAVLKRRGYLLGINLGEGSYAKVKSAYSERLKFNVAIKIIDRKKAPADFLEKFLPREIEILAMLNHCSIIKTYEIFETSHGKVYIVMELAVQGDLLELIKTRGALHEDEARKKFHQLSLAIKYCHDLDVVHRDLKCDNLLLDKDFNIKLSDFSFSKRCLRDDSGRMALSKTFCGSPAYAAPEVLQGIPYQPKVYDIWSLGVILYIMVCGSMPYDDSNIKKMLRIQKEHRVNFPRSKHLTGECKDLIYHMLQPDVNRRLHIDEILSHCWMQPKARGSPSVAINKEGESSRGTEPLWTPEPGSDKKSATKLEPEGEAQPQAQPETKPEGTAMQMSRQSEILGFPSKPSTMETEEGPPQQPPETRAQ

[8] = biological target: kinase targets listed in tables 3 and 4 (Homo sapiens, UniProt Q13464); assay: biochemical
kinase targets listed in tables 3 and 4 (Homo sapiens, UniProt Q13464), sequence (Q13464 2-1354 limits assumed): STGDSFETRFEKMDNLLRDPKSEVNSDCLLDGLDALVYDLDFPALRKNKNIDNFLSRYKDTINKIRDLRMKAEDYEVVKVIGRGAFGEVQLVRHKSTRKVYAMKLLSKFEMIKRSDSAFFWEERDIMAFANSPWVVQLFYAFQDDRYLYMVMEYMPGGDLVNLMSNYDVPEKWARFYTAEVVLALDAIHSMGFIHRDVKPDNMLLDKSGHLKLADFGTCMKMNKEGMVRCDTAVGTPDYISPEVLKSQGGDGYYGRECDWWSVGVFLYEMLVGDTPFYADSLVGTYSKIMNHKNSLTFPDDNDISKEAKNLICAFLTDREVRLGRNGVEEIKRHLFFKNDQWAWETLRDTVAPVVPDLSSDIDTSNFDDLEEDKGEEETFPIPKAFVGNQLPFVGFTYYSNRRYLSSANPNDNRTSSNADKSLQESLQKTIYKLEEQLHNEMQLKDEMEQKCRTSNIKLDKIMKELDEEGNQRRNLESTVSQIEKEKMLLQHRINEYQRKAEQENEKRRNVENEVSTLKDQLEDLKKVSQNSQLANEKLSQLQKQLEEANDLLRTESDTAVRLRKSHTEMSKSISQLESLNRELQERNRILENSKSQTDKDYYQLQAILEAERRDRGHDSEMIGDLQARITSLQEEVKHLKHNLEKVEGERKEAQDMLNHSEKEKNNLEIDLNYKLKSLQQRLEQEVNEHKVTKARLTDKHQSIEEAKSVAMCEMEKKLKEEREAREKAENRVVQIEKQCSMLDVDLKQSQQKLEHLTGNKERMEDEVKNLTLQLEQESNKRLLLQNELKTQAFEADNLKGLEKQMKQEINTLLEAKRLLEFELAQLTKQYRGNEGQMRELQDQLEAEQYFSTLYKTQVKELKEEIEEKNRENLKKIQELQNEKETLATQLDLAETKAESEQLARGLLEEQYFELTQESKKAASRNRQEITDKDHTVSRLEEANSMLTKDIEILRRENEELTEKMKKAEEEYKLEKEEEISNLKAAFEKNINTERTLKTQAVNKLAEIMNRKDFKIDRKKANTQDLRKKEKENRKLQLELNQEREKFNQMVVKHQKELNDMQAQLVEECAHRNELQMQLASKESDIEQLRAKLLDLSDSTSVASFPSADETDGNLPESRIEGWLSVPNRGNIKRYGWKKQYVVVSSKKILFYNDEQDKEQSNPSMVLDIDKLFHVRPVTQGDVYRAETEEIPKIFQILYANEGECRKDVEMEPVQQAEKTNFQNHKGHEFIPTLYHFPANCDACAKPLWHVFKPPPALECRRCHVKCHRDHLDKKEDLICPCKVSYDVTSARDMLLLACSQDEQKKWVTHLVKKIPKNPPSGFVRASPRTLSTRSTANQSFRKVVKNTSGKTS

[9] = 1 μM ATP, read-out: ROCK2 Average Ki
[10] = 1 μM ATP, read-out: MRCK-a Average Ki
[11] = MDA-MB-231 cells, doxycycline inducible kinase domain, 60 minutes, pMLC (T18/S19), read-out: Cellular assay - MRCK-b inhibition MEAN
[12] = 1 μM ATP, read-out: MRCK-B Average Ki
[13] = MDA-MB-231 cells, doxycycline inducible kinase domain, 60 minutes, pMLC (T18/S19), read-out: Cellular assay - ROCK1 inhibition MEAN

T1 sequence (Q13464 2-1354 limits assumed): as above
ROCK2, sequence (O75116 whole entry): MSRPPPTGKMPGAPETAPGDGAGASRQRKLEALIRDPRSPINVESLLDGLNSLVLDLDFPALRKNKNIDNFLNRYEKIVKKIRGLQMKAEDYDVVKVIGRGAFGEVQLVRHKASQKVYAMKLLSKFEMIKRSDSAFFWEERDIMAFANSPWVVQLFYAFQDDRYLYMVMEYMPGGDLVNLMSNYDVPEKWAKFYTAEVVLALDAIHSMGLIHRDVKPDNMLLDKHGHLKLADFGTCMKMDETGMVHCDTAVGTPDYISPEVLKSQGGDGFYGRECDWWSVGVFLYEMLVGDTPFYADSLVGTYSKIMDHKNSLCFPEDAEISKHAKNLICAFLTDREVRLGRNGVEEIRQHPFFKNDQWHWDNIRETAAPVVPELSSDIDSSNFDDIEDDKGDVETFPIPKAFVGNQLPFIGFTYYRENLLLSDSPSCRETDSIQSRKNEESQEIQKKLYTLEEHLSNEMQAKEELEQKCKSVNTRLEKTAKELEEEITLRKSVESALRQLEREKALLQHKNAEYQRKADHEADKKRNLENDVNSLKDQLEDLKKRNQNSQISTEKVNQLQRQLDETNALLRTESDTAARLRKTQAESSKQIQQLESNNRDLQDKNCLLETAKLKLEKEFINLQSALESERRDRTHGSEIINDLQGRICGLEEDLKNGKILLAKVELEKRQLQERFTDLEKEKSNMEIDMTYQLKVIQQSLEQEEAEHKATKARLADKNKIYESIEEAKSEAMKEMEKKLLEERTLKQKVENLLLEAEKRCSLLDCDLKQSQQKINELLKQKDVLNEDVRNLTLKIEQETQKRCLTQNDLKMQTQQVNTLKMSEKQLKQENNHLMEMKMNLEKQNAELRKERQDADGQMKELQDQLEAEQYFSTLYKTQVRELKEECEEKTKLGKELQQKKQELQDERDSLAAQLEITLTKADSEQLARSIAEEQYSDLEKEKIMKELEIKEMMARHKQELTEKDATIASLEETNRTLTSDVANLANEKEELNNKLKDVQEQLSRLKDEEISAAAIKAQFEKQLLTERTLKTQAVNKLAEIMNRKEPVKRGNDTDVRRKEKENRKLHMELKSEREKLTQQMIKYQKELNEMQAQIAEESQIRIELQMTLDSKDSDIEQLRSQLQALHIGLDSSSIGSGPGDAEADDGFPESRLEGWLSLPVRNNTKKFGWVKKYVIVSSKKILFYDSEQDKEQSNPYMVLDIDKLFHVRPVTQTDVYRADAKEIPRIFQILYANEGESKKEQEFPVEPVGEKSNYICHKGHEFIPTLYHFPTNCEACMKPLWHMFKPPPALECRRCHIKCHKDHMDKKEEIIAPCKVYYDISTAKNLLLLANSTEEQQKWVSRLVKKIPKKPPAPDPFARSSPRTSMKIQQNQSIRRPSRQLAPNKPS

| SMILES | Ki (ROCK1 [1]) [nM] | Ki (ROCK2; [9]) [nM] | Ki (MRCKα; [10]) [nM] | IC50 (MRCKβ [2]; [11]) [nM] | Ki (MRCKβ [3]; [12]) [nM] | IC50 (ROCK1 [4]; [13]) [nM] | also measured |
| --- | --- | --- | --- | --- | --- | --- | --- |
| c1cc(N2CCC[C@@]3(CCCCN3)C2)c2c(-c3ncsn3)c[nH]c2n1 [Example E116, 3-[4-[(6S)-1,8-diazaspiro[5.5]undecan-8-yl]-1H-pyrrolo[2,3-b]pyridin-3-yl]-1,2,4-thiadiazole] | 85.1 | 39.4 | 0.0122 | 142 | 0.0124 | > 30000 |  |
| c1cc(N2CCC[C@@]3(CCCCN3)C2)c2c(-c3ccsn3)c[nH]c2n1 [Example E120, 3-[4-[(6S)-1,8-diazaspiro[5.5]undecan-8-yl]-1H-pyrrolo[2,3-b]pyridin-3-yl]isothiazole] | 23.8 | 4.73 | 0.0049 | 13.3 | 0.0147 | 15400 |  |
| c1ncc(-c2c[nH]c3nccc(N4CCC[C@@]5(CCCCN5)C4)c23)cn1 [Example E122, (6S)-8-(3-pyrimidin-5-yl-1H-pyrrolo[2,3-b]pyridin-4-yl)-1,8-diazaspiro[5.5]undecane] | 196 | 77.7 | 0.0284 | 101 | 0.585 | > 30000 |  |
| Cc1cnc(-c2c[nH]c3nccc(N4CC[C@@]5(CCCCN5)C4)c23)s1 [Example E131, 2-[4-[(5S)-2,6-diazaspiro[4.5]decan-2-yl]-1H-pyrrolo[2,3-b]pyridin-3-yl]-5-methyl-thiazole] | 107 | 24.8 | 0.021 | 318 | 0.0601 | > 30000 |  |
| c1csc(-c2c[nH]c3nccc(N4CC[C@@]5(CCCN5)C4)c23)n1 [Example E134, 2-[4-[(5S)-1,7-diazaspiro[4.4]nonan-7-yl]-1H-pyrrolo[2,3-b]pyridin-3-yl]thiazole] | 111 |  |  |  |  |  | Ki (ROCK2): 30 nM; Ki (MRCKα): 0.19 nM; IC50 (MRCKβ [2]): 787 nM; Ki (MRCKβ [3]): 0.303 nM; IC50 (ROCK1 [4]): > 30000 nM |
| c1cc(N2CCC3(CCCN3)C2)c2c(-c3ccsn3)c[nH]c2n1 (stereo not shown) [Example E136, 3-[4-(1,7-diazaspiro[4.4]nonan-7-yl)-1H-pyrrolo[2,3-b]pyridin-3-yl]isothiazole] | 70.7 |  |  |  |  |  | Ki (ROCK2): 14.2 nM; Ki (MRCKα): 0.207 nM; IC50 (MRCKβ [2]): 457 nM; Ki (MRCKβ [3]): 0.12 nM; IC50 (ROCK1 [4]): > 30000 nM |
| c1ccc(-c2c[nH]c3nccc(N4CCC[C@@]5(CCCCN5)C4)c23)nc1 [Example E139, (6S)-8-[3-(2-pyridyl)-1H-pyrrolo[2,3-b]pyridin-4-yl]-1,8-diazaspiro[5.5]undecane] |  | 41 | 0.0435 | 107 | 0.0391 | > 30000 | Ki (ROCK1 [5]): 99.1 nM |
| Cc1csnc1-c1c[nH]c2nccc(N3CCCC4(CCCCN4)C3)c12 (stereo not shown) [Example E142, 3-[4-(1,8-diazaspiro[5.5]undecan-8-yl)-1H-pyrrolo[2,3-b]pyridin-3-yl]-4-methyl-isothiazole] | 104 | 33600 | 0.216 | 1210 | 0.203 | > 30000 |  |
| Cc1cnc(-c2c[nH]c3nccc(N4CCC[C@@]5(CCCCN5)C4)c23)s1 [Example E146, 2-[4-[(6S)-1,8-diazaspiro[5.5]undecan-8-yl]-1H-pyrrolo[2,3-b]pyridin-3-yl]-5-methyl-thiazole] | 203 | 100 | 0.0493 | 150 | 0.0539 | > 30000 |  |
| c1csc(-c2c[nH]c3nccc(N4CCC[C@@]5(CCCCN5)C4)c23)n1 [Example E150, 2-[4-[(6S)-1,8-diazaspiro[5.5]undecan-8-yl]-1H-pyrrolo[2,3-b]pyridin-3-yl]thiazole] | 56.9 | 21.7 | 0.0332 | 42.2 | 0.0246 | > 30000 | IC50 [6]: 6.9 nM; Ki [6]: 1.15 nM; IC50 [7]: 4360 nM; Ki [7]: 2070 nM; IC50 [8]: 406 nM; Ki [8]: 251 nM |
| c1cc(-c2c[nH]c3nccc(N4CCC[C@@]5(CCCCN5)C4)c23)cnn1 [Example E174, (6S)-8-(3-pyridazin-4-yl-1H-pyrrolo[2,3-b]pyridin-4-yl)-1,8-diazaspiro[5.5]undecane] | 405 |  |  | 50.9 | 0.0256 | 2250 |  |
| N#Cc1c[nH]c2nccc(N3CCC[C@@]4(CCCCN4)C3)c12 [Example E187, 4-[(6S)-1,8-diazaspiro[5.5]undecan-8-yl]-1H-pyrrolo[2,3-b]pyridine-3-carbonitrile] |  | 44.2 | 0.249 |  | 0.179 |  | Ki (ROCK1 [5]): 152 nM; IC50 (MRCKβ [2]): 782 nM; IC50 (ROCK1 [4]): > 30000 nM |
| CN1CCCC[C@@]12CCCN(c1ccnc3[nH]cc(-c4ccncn4)c13)C2 [Example E206, (6S)-1-methyl-8-(3-pyrimidin-4-yl-1H-pyrrolo[2,3-b]pyridin-4-yl)-1,8-diazaspiro[5.5]undecane] |  | 4.19 | 0.0189 | 138 | 0.0277 | > 30000 | Ki (ROCK1 [5]): 20.6 nM |
| CCN1CCCC[C@@]12CCCN(c1ccnc3[nH]cc(-c4ccncn4)c13)C2 [Example E207, (6S)-1-ethyl-8-(3-pyrimidin-4-yl-1H-pyrrolo[2,3-b]pyridin-4-yl)-1,8-diazaspiro[5.5]undecane] |  | 8.34 | 0.0275 | 170 | 0.0395 | > 30000 | Ki (ROCK1 [5]): 20 nM |
| CCN1CCCCC12CCCN(c1ccnc3[nH]cc(-c4nccs4)c13)C2 (stereo not shown) [Example E209, 2-[4-(1-ethyl-1,8-diazaspiro[5.5]undecan-8-yl)-1H-pyrrolo[2,3-b]pyridin-3-yl]thiazole] | 127 | 29.9 | 0.101 | 109 | 0.0389 | > 30000 |  |
| CCN1CCCCC12CCCN(c1ccnc3[nH]cc(-c4ncc(C)s4)c13)C2 (stereo not shown) [Example E210, 2-[4-(1-ethyl-1,8-diazaspiro[5.5]undecan-8-yl)-1H-pyrrolo[2,3-b]pyridin-3-yl]-5-methyl-thiazole] | 50200 | 152 | 0.127 | 701 | 0.0634 | > 30000 |  |
| CCN1CCCCC12CCCN(c1ccnc3[nH]cc(C#N)c13)C2 (stereo not shown) [Example E211, 4-(1-ethyl-1,8-diazaspiro[5.5]undecan-8-yl)-1H-pyrrolo[2,3-b]pyridine-3-carbonitrile] |  | 34.3 | 0.631 |  | 0.351 |  | Ki (ROCK1 [5]): 245 nM; IC50 (MRCKβ [2]): 952 nM; IC50 (ROCK1 [4]): > 30000 nM |
| c1csc(-c2c[nH]c3nccc(O[C@@H]4CCCNC4)c23)n1 [Example E212, 2-[4-[[(3R)-3-piperidyl]oxy]-1H-pyrrolo[2,3-b]pyridin-3-yl]thiazole] | 29.9 | 7.57 | 0.185 | 426 | 0.184 | 14400 |  |
| c1cc(N2CCCC3(CCCCN3)C2)c2c(-c3ncsn3)c[nH]c2n1 (stereo not shown) [Example E236, 3-[4-[1,8-diazaspiro[5.5]undecan-8-yl]-1H-pyrrolo[2,3-b]pyridin-3-yl]-1,2,4-thiadiazole] | 390 | 105 | 0.0945 | 145 | 0.0898 | > 30000 |  |
